Reference: PubChem BioAssay (NCI)
“And” between values parts separate entries of the source, which are not always exact repeats. Equal values may be shown once.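 Exposure lasted 48 hours, with cells grown in 96-well plates and compounds tested at five concentrations. GI50 marks 50% less growth. TGI denotes the concentration required for complete inhibition of growth.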

Columns and labels:
Test in all cases: NCI-60 cell line screen, 48 h
MOLT-4 leukemia = system: MOLT-4 leukemia
SK-MEL-2 melanoma = system: SK-MEL-2 melanoma
K-562 leukemia = system: K-562 leukemia
LXFL 529 NSCLC = system: LXFL 529 NSCLC
NCI-H23 lung = system: NCI-H23 lung
LOX IMVI melanoma = system: LOX IMVI melanoma
SNB-78 CNS = system: SNB-78 CNS
U251 CNS = system: U251 CNS
HOP-62 NSCLC = system: HOP-62 NSCLC
HS 578T breast = system: HS 578T breast

Structure (SMILES)	TGI (MOLT-4 leukemia)	TGI (SK-MEL-2 melanoma)	TGI (K-562 leukemia)	TGI (LXFL 529 NSCLC)	TGI (NCI-H23 lung)	TGI (LOX IMVI melanoma)	TGI (SNB-78 CNS)	TGI (U251 CNS)	TGI (HOP-62 NSCLC)	TGI (HS 578T breast)	GI50 (HOP-62 NSCLC)	GI50 (MOLT-4 leukemia)	GI50 (HS 578T breast)	GI50 (SK-MEL-2 melanoma)	GI50 (K-562 leukemia)	GI50 (NCI-H23 lung)	GI50 (U251 CNS)	GI50 (LOX IMVI melanoma)
C1=CC=C2NCCCCCCCNC3=CC=CC=CC3=NCCCCCCCN=C2C=C1	> 100 µM	> 100 µM	> 100 µM	> 100 µM	> 100 µM	> 100 µM	–	–	–	–	–	–	–	–	–	–	–	–
O=C(O/C(=C(/N=Nc1ccccc1)c1ccccc1)c1ccccc1)c1ccccc1	> 100 µM	> 100 µM	> 100 µM	> 100 µM	> 100 µM	–	> 100 µM	> 100 µM	–	–	–	–	–	–	–	–	–	–
O=c1[nH]nc2ccccc2c1Cc1ccccc1	> 100 µM	> 100 µM	> 100 µM	–	> 100 µM	> 100 µM	> 100 µM	> 100 µM	> 100 µM	–	–	–	–	–	–	–	–	–
CC(C)CCCC(C)[C@H]1CCC2[C@@H]3CCC4Nc5nocc5C[C@]4(C)C3CC[C@@]21C (stereo not given in full)	46.5 µM	38.7 µM	38.3 µM	27.3 µM	31.4 µM	4.95 µM	42.1 µM	32 µM	> 100 µM	–	–	–	–	–	–	–	–	–
COCC(O)Cn1ccnc1[N+](=O)[O-] (stereo not given)	> 100 µM	> 100 µM	> 100 µM	–	> 100 µM	> 100 µM	> 100 µM	> 100 µM	> 100 µM	–	–	–	–	–	–	–	–	–
OCC1C(/C=C/c2ccoc2)ON2CCCC12 (stereo not given)	–	> 100 µM	–	> 100 µM	> 100 µM	> 100 µM	> 100 µM	> 100 µM	> 100 µM	–	–	–	–	–	–	–	–	–
COC(=O)c1ccccc1OCc1cc(=O)oc2ccc(C)cc12	> 100 µM	> 85.4 µM	> 100 µM	> 100 µM	> 100 µM	> 100 µM	–	35.4 µM	> 57.5 µM	> 100 µM	–	–	–	–	–	–	–	–
C[C@]12CCC(=O)C=C1CC[C@@H]1C2CC[C@]2(C)Nc3c(cnn3-c3ccccc3)CC12 (stereo not given in full)	> 100 µM	> 100 µM	> 100 µM	> 100 µM	> 100 µM	–	> 100 µM	> 100 µM	> 100 µM	–	–	–	–	–	–	–	–	–
C=CCNC(=O)N(CCCC(NC(C)=O)C(=O)NCc1ccccc1)Cc1ccccc1 (stereo not given)	> 100 µM	> 100 µM	> 100 µM	> 100 µM	> 100 µM	> 100 µM	–	> 100 µM	> 100 µM	–	–	–	–	–	–	–	–	–
CC(=O)NNc1nc(C)c(C(=O)/C=C/c2ccccc2Cl)s1	> 100 µM	> 100 µM	> 100 µM	–	> 100 µM	> 100 µM	> 100 µM	> 100 µM	> 100 µM	–	–	–	–	–	–	–	–	–
O=C1NC2(CCCCCC2)C2CCCCCCC12O (stereo not given)	> 100 µM	> 100 µM	> 100 µM	> 100 µM	> 100 µM	> 100 µM	> 100 µM	> 100 µM	> 100 µM	–	–	–	–	–	–	–	–	–
Cc1cc2c(C)nn(Cc3ccccc3)c2c(C(N)=O)c1C	> 100 µM	> 100 µM	> 100 µM	> 100 µM	> 100 µM	> 100 µM	> 100 µM	> 100 µM	> 100 µM	–	–	–	–	–	–	–	–	–
CCn1cnc(C[C@H](NC(=O)[C@@H](NC(=O)Nc2cc(C(F)(F)F)cc(C(F)(F)F)c2)C(C)C)C(=O)OC)c1	9.35 µM	> 10 µM	> 10 µM	–	> 10 µM	7.43 µM	–	3.96 µM	3.65 µM	6.11 µM	1.87 µM	2.99 µM	2.18 µM	> 10 µM	6.38 µM	2.69 µM	1.98 µM	2.5 µM
CNC(=O)c1cccc2cc(Oc3ccnc4cc(OCC5(N)CC5)c(OC)cc34)ccc12	21.6 µM	32 µM	16.7 µM	–	28.9 µM	17.1 µM	–	23.3 µM	27.6 µM	30.2 µM	10.7 µM	3.49 µM	5.5 µM	14.3 µM	3.55 µM	11.2 µM	9.43 µM	3.89 µM
O=C(CC(=O)C1=CNc2ccccc2S1)C(=O)Nc1ccc(Cl)cc1	> 50 µM	> 50 µM	> 50 µM	> 50 µM	> 50 µM	> 50 µM	> 50 µM	> 50 µM	> 50 µM	–	–	–	–	–	–	–	–	–
O=C(Nc1cccc(-n2cc(-c3ccncc3)c(-c3ccc(Cl)c(O)c3)n2)c1)c1ccc(N2CCOCC2)c(C(F)(F)F)c1	36.7 µM	15.3 µM	> 50 µM	–	30.2 µM	7.29 µM	–	24.9 µM	> 50 µM	> 50 µM	9.38 µM	2.37 µM	1.85 µM	2.89 µM	1.88 µM	4.2 µM	1.85 µM	1.64 µM
COC1=CC(c2ccc[nH]2)=N/C1=C\c1[nH]c(C)c(C(=O)CCCCC(=O)NC(C)(C)C)c1C	4.29 µM	42.5 µM	–	–	4.46 µM	2.42 µM	–	2.57 µM	5.02 µM	4.26 µM	1.74 µM	0.854 µM	1.75 µM	17.7 µM	1.94 µM	1.57 µM	1.29 µM	1.15 µM
Cc1ccc(C(CC(=O)c2ccccc2)C2C(=O)NC(=O)NC2=O)cc1 (stereo not given)	> 100 µM	> 100 µM	> 100 µM	–	> 100 µM	> 100 µM	–	> 100 µM	> 100 µM	> 100 µM	> 100 µM	> 100 µM	> 100 µM	> 100 µM	> 100 µM	> 100 µM	> 100 µM	> 100 µM
O=c1ccn(C2CC(O)C(CO)O2)c(=O)[nH]1 (stereo not given)	> 5000 µM	> 5000 µM	> 5000 µM	–	> 5000 µM	> 5000 µM	–	> 5000 µM	> 5000 µM	> 5000 µM	> 5000 µM	548 µM and 227 µM	> 5000 µM	> 5000 µM	> 5000 µM	> 5000 µM	> 5000 µM	> 5000 µM
